Measured values from patent US8338450B2, “Compounds as dipeptidyl peptidase IV (DPP IV) inhibitors” (Lupin Limited, priority 2007, dated 2012).
Counter-ions that a name gives are not always drawn. Like-named read-outs stand apart in the source and are kept apart here. Blank lines part the entries; values can stand above or below the compound they belong to.

Tests used:
human recombinant DPP-IV = target: T1, human recombinant DPP-IV (Homo sapiens, UniProt P27487); test: Inhibition of human recombinant DPP-IV (Gly-Pro-AMC hydrolysis, fluorometric); type: biochemical; details: for IC50: human recombinant DPP-IV, 50 μM Gly-Pro-AMC, 30 min at 30° C.; for inhibition at 1 µM: compound 1000 nM, relative to vehicle controls, read-out: % inhibition at 1000 nM
T1 construct: purchased R&D Systems, USA (or produced in-house)
Method in brief: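 Enzyme (10 ng) was preincubated 15 min at 30° C. with compound (10 and 100 nM screen; 8 concentrations 0.1-1000 nM) in Tris-HCl pH 7.4, NaCl, KCl, BSA. 50 μM Gly-Pro-AMC was added for 30 min at 30° C. and AMC fluorescence was read (ex 360/em 460 nm). Results are given as % inhibition versus vehicle or as IC50.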

plasma DPP-IV = target: T2, plasma DPP-IV (Rattus norvegicus, UniProt P14740); test: Measurement of plasma DPP-IV activity in male Wistar rats after single oral dose; type: in vivo; details: p.o.; for inhibition at 3 mg/kg / inhibition at 10 mg/kg: rat, po; for inhibition at 3 mg/kg / Plasma DPP-IV Inhibition (%) 4 h / Plasma DPP-IV Inhibition (%) 6 h / Plasma DPP-IV Inhibition (%) 8 h: 3 mg/kg
T2 construct: from tissue; host or cells: EDTA-plasma of male Wistar rats dosed orally
Experimental: Overnight-fasted male animals were administered either vehicle or single oral doses of compounds. Blood samples were withdrawn from retro-bulbar venous plexus under anesthesia at several time points up to 24 h post-dose. EDTA-plasma was separated and DPP-IV activity was measured using a fluorometric assay. Assays were carried out in 96-well flat-bottom black microwell plates. A typical reaction contained 25 μl plasma, 50 μl of 50 μM substrate (Gly-Pro-AMC) and 25 μl assay buffer (25 mM Tris-HCl, pH 7.4, 140 mM NaCl, 10 mM KCl and 1% BSA) in a total reaction volume of 100 μl. Plasma samples were incubated with the substrate for 30 min at 30° C., following which the fluorescence was measured in a microplate fluorescence redaer (POLARstar Galaxy), with excitation and emission wavelengths set at 360 nm and 460 nm, respectively. Percent inhibition in plasma DPP-IV activity due to compounds was calculated by comparing with plasma from vehicle-treated animals.

C57BL/6J mice = test: Oral glucose tolerance test in male C57BL/6J mice; type: in vivo; details: 3 mg/kg, p.o., oral glucose load 5 g/kg 1 h after compound, glucose AUC 0-120 min vs vehicle
Experimental: B. Oral Glucose Tolerance Test in Male C57BU6J Mice
Overnight-fasted male […] mice were challenged 1 h, 4 h and 8 h after either vehicle or compound administration with an oral glucose load of 5 g/kg in three different groups of animals. Blood samples for glucose measurement were obtained by tail bleed at predose, before glucose load and at serial time points after the glucose load, to evaluate the efficacy and duration of effect on glucose tolerance test. […] Improvement in glucose tolerance in compound-treated animals was estimated by comparing with vehicle-treated animals.
Table 3 provides data for the antihyperglycemic activity of selected compounds in C57BL/6J mice, as determined by oral glucose tolerance test.

[1] = 4 h post-dose, read-out: Plasma DPP-IV Inhibition (%) 4 h
[2] = 6 h post-dose, read-out: Plasma DPP-IV Inhibition (%) 6 h
[3] = 8 h post-dose, read-out: Plasma DPP-IV Inhibition (%) 8 h

T1 sequence (P27487 whole entry): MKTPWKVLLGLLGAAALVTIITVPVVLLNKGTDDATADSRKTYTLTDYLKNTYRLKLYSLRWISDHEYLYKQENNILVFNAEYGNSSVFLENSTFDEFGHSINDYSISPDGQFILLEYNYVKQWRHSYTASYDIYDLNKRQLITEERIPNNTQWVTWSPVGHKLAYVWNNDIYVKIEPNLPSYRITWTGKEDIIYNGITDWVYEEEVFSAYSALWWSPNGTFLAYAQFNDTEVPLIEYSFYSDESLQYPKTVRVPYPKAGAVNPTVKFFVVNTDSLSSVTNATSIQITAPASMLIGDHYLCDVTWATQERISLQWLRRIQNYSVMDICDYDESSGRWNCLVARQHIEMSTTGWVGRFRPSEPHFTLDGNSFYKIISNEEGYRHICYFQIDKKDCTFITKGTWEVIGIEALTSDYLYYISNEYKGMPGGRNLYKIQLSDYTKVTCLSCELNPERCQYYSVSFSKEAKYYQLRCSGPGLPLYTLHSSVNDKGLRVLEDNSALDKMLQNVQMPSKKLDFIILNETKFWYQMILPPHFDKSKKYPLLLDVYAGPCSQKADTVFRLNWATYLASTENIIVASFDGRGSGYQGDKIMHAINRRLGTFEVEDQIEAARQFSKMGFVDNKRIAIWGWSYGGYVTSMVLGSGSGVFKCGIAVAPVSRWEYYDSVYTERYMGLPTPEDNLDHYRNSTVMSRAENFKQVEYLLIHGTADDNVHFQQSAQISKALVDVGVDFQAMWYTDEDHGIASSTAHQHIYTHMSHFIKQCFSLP
T2 sequence (P14740 37-767 limits assumed): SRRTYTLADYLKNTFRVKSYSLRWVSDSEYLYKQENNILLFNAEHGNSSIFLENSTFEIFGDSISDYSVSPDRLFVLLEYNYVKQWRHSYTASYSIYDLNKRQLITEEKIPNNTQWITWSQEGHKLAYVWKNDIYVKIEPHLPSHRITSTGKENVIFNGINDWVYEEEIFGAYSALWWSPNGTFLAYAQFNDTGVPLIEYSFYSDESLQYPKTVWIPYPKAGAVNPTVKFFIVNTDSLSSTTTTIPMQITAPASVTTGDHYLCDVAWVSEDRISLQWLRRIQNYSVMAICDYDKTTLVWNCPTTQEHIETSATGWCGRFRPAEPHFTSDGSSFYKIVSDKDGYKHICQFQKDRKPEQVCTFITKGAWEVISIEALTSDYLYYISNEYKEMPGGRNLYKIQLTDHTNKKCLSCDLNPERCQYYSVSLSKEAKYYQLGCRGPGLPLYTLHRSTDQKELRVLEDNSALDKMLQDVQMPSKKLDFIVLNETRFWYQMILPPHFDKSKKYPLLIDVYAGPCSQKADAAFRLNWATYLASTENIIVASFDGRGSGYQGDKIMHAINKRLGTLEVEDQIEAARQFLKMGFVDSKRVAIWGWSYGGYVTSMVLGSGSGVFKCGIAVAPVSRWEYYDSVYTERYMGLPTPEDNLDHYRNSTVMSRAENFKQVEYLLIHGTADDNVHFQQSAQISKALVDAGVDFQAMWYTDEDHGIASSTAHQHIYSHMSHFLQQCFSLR

Compound: N#C[C@@H]1C[C@@H]2C[C@@H]2N1C(=O)[C@@H](N)C1CC2CCC(C1)N2C(=O)c1ccnc(F)c1 (stereo partly drawn) [Compound 28, (1S,3S,5S)-2-{(2S)-2-amino-2-[8-(2-fluoropyridine-4-carbonyl)-8-aza-bicyclo[3.2.1]-oct-3-yl]-exo-ethanoyl}-2-azabicyclo[3.1.0]-hexane-3-carbonitrile trifluoro acetic acid salt]
- IC50 (human recombinant DPP-IV): 4.7 nM
- inhibition at 3 mg/kg (plasma DPP-IV; [1]): 51%
- inhibition at 3 mg/kg (plasma DPP-IV; [2]): 35%
- inhibition at 3 mg/kg (plasma DPP-IV; [3]): 28%
- inhibition at 10 mg/kg (plasma DPP-IV; [1]): 77%
- inhibition at 10 mg/kg (plasma DPP-IV; [2]): 65%
- inhibition at 10 mg/kg (plasma DPP-IV; [3]): 53%
- Improvement in Glucose Tolerance (%) 1 h (C57BL/6J mice): 54%

Compound: C#C[C@H]1CC[C@@H](C#N)N1C(=O)[C@@H](N)C1CC2CCC(C1)N2C(=O)c1ccc2c(c1)OCO2.O=C(O)C(F)(F)F (stereo partly drawn) [Compound 67, (2S,5R)-1-{(2S)-2-Amino-2-[8-(benzo[1,3]dioxole-5-carbonyl)-8-aza-bicyclo[3.2.1]oct-3-yl]-exo-ethanoyl}-5-ethynyl-pyrrolidin-2-carbonitrile trifluoroacetic acid salt]
- IC50 (human recombinant DPP-IV): 7.68 nM
- Plasma DPP-IV Inhibition (%) 4 h (plasma DPP-IV; 4 h post-dose): 64%
- Plasma DPP-IV Inhibition (%) 6 h (plasma DPP-IV; 6 h post-dose): 36%
- Plasma DPP-IV Inhibition (%) 8 h (plasma DPP-IV; 8 h post-dose): 23%
- Improvement in Glucose Tolerance (%) 1 h (C57BL/6J mice): 50%

Compound: COC(=O)[C@@H]1CCCN1C(=O)[C@@H](N)C1CC2CCC(C1)N2C(=O)c1ccc(C(F)(F)F)cc1 (stereo partly drawn) [Compound 10, Methyl (2S)-1-{(2S)-2-amino-2-[8-(4-trifluoromethyl-benzoyl)-8-aza-bicyclo[3.2.1]oct-3-yl]-exo-ethanoyl}-pyrrolidin-2-carboxylate trifluoro acetic acid]
- inhibition at 1 µM (human recombinant DPP-IV): 41%
- melting point: 173 to 175 °C

Compound: C#C[C@H]1CC[C@@H](C#N)N1C(=O)[C@@H](N)C1CC2CCC(C1)N2C(=O)c1ccnc(F)c1 (stereo partly drawn) [Compound 66, (2S,5R)-1-{(2S)-2-Amino-2-[8-(2-fluoropyridin-4-carbonyl)-8-aza-bicyclo[3.2.1]-oct-3-yl]-exo-ethanoyl}-5-ethynyl-pyrrolidin-2-carbonitrile trifluoro acetic acid salt]
- IC50 (human recombinant DPP-IV): 8.24 nM
- inhibition at 3 mg/kg (plasma DPP-IV; [1]): 56%
- inhibition at 3 mg/kg (plasma DPP-IV; [2]): 38%
- inhibition at 3 mg/kg (plasma DPP-IV; [3]): 38%
- Improvement in Glucose Tolerance (%) 1 h (C57BL/6J mice): 48%

Compound: Cl.N[C@H](C(=O)N1CCC[C@H]1c1nn[nH]n1)C1CC2CCC(C1)N2C(=O)c1ccc(C(F)(F)F)cc1 (stereo partly drawn) [Compound 13, (2S)-1-{(2S)-2-Amino-2-[8-(4-trifluoromethyl-benzoyl)-8-aza-bicyclo[3.2.1]oct-3-yl]-exo-ethanoyl}-2-(2H-tetrazol-5-yl)pyrrolidine hydrochloride]
- inhibition at 1 µM (human recombinant DPP-IV): 21%
- melting point: 244 to 246 °C

- IC50 (human recombinant DPP-IV): 1.72 nM
- melting point: 168 to 170 °C
Compound: Cl.N#C[C@@H]1C[C@H](F)CN1C(=O)[C@@H](N)C1CC2CCC(C1)N2C(=O)c1ccc(C(F)(F)F)cc1 (stereo partly drawn) [Compound 15, (2S,4S)-1-{(2S)-2-Amino-2-[8-(4-trifluoromethyl-benzoyl)-8-aza-bicyclo[3.2.1]oct-3-yl]-exo-ethanoyl}-4-fluoro-pyrrolidine-2-carbonitrile hydrochloride salt]

Compound: N#C[C@@H]1C[C@@H]2C[C@@H]2N1C(=O)[C@@H](N)C1CC2CCC(C1)N2C(=O)c1cnccn1.O=C(O)C(F)(F)F (stereo partly drawn) [Compound 35, (1S,3S,5S)-2-{(2S)-2-Amino-2-[8-(pyrazine-2-carbonyl)-8-aza-bicyclo[3.2.1]oct-3-yl]-exo-ethanoyl}-2-azabicyclo[3.1.0]hexane-3-carbonitrile trifluoroacetic acid salt]
- IC50 (human recombinant DPP-IV): 4.2 nM
- Plasma DPP-IV Inhibition (%) 4 h (plasma DPP-IV; 4 h post-dose): 54%
- Plasma DPP-IV Inhibition (%) 6 h (plasma DPP-IV; 6 h post-dose): 42%
- Plasma DPP-IV Inhibition (%) 8 h (plasma DPP-IV; 8 h post-dose): 33%
- Improvement in Glucose Tolerance (%) 1 h (C57BL/6J mice): 46%

Compound: NC(=O)[C@@H]1C[C@@H]2C[C@@H]2N1C(=O)[C@@H](N)C1CC2CCC(C1)N2C(=O)c1ccc2c(c1)OCO2 (stereo partly drawn) (as salt: salt) [Compound 45, (1S,3S,5S)-2-{(2S)-2-Amino-2-[8-(benzo-[1,3]dioxole-5-carbonyl)-8-aza-bicyclo[3.2.1]oct-3-yl]-exo-ethanoyl}-2-azabicyclo[3.1.0]-hexane-3-carboxamide trifluoro acetic acid salt]
- melting point: 154 to 156 °C

- melting point: 160 to 163 °C
Compound: C#C[C@H]1CC[C@@H](C#N)N1C(=O)[C@@H](N)C1CC2CCC(C1)N2C(=O)c1ccc(C(F)(F)F)cc1 (stereo partly drawn) (as salt: salt) [Compound 63, (2S,5R)-1-{(2S)-2-Amino-2-[8-(4-trifluoromethyl-benzoyl)-8-aza-bicyclo[3.2.1]oct-3-yl]-exo-ethanoyl}-5-ethynyl-pyrrolidin-2-carbonitrile trifluoro acetic acid salt]
